# Source: ChEMBL document CHEMBL4828726, “Modification of 5-methylphenanthridium from benzothiazoles to indoles as potent FtsZ inhibitors: Broadening the antibacterial spectrum toward vancomycin-resistant enterococci” (Eur J Med Chem, 2021)
# Activity calls are given as the source filed them. The rule behind the calls is not given here.
# What was measured:
# Staphylococcus aureus [1] = experiment: Antibacterial activity against erythromycin-susceptible Staphylococcus aureus ATCC 25923 assessed as inhibition of bacterial growth measured after 20 hrs by two-fold microdilution assay; type: functional
# Pseudomonas aeruginosa [2] = experiment: Antibacterial activity against penicillin-susceptible Pseudomonas aeruginosa ATCC 27853 assessed as inhibition of bacterial growth measured after 20 hrs by two-fold microdilution assay; type: functional
# Staphylococcus aureus [3] = experiment: Bactericidal activity against methicillin-resistant Staphylococcus aureus ATCC43300 assessed as inhibition of bacterial growth measured after 20 hrs by two-fold microdilution assay; type: functional
# Staphylococcus aureus [4] = experiment: Antibacterial activity against Staphylococcus aureus ATCC 25923 assessed as fold increase in MIC value measured after 10 passages by Multi passage resistance assay; type: functional, organism-based
# Staphylococcus aureus [5] = experiment: Ratio of MBC to MIC against erythromycin-susceptible Staphylococcus aureus ATCC 25923; type: functional
# Streptococcus pyogenes [6] = experiment: Antibacterial activity against erythromycin-resistant Streptococcus pyogenes assessed as inhibition of bacterial growth measured after 20 hrs by two-fold microdilution assay; type: functional
# Staphylococcus aureus [7] = experiment: Antibacterial activity against Staphylococcus aureus ATCC 25923 assessed as fold increase in MIC value measured after 1 passage by Multi passage resistance assay; type: functional
# Staphylococcus aureus [8] = experiment: Bactericidal activity against erythromycin-susceptible Staphylococcus aureus ATCC 25923 assessed as inhibition of bacterial growth measured after 20 hrs by two-fold microdilution assay; type: functional
# Staphylococcus aureus [9] = experiment: Ratio of MBC to MIC against methicilline-resistant Staphylococcus aureus ATCC43300; type: functional
# Enterococcus faecalis [10] = experiment: Antibacterial activity against Vancomycin-resistant Enterococcus faecalis ATCC 51299 assessed as inhibition of bacterial growth measured after 20 hrs by two-fold microdilution assay; type: functional
# Enterococcus faecium [11] = experiment: Antibacterial activity against Vancomycin-susceptible Enterococcus faecium ATCC 19434 assessed as inhibition of bacterial growth measured after 20 hrs by two-fold microdilution assay; type: functional
# Pseudomonas aeruginosa [12] = experiment: Anti-biofilm activity against Pseudomonas aeruginosa ATCC 27853 assessed as inhibition of biofilm formation at 4 to 64 ug/ml measured after 20 hrs by crystal violet staining based biofilm formation inhibition assay; type: functional, organism-based; conditions: dose 4-64 µg/ml
# Bacillus subtilis [13] = experiment: Antibacterial activity against penicillin-susceptible Bacillus subtilis ATCC 9372 assessed as inhibition of bacterial growth measured after 20 hrs by two-fold microdilution assay; type: functional
# Escherichia coli = experiment: Antibacterial activity against penicillin-susceptible Escherichia coli ATCC 25922 assessed as inhibition of bacterial growth measured after 20 hrs by two-fold microdilution assay; type: functional
# Enterococcus faecalis [14] = experiment: Antibacterial activity against Vancomycin-susceptible Enterococcus faecalis ATCC 29212 assessed as inhibition of bacterial growth measured after 20 hrs by two-fold microdilution assay; type: functional
# Bacillus subtilis [15] = experiment: Ratio of MBC to MIC against penicillin-susceptible Bacillus subtilis ATCC 9372; type: functional
# Staphylococcus aureus [16] = experiment: Antibacterial activity against Staphylococcus aureus ATCC 25923 assessed as decrease of bacterial growth measured up to 24 hrs by Time kill assay; type: functional, organism-based; conditions: dose 4-32 µg/ml, time hrs <=24
# Staphylococcus aureus [17] = experiment: Antibacterial activity against methicillin-resistant Staphylococcus aureus ATCC43300 assessed as inhibition of bacterial growth measured after 20 hrs by two-fold microdilution assay; type: functional
# Bacillus pumilus [18] = experiment: Bactericidal activity against penicillin-susceptible Bacillus pumilus CMCC63202 assessed as inhibition of bacterial growth measured after 20 hrs by two-fold microdilution assay; type: functional
# Bacillus subtilis [19] = experiment: Bactericidal activity against penicillin-susceptible Bacillus subtilis ATCC 9372 assessed as inhibition of bacterial growth measured after 20 hrs by two-fold microdilution assay; type: functional
# Staphylococcus aureus [20] = experiment: Antibacterial activity against penicillin-resistant Staphylococcus aureus ATCC 31007 assessed as inhibition of bacterial growth measured after 20 hrs by two-fold microdilution assay; type: functional
# [21] = tested on: Staphylococcus epidermidis; experiment: Antibacterial activity against penicillin-resistant Staphylococcus epidermidis assessed as inhibition of bacterial growth measured after 20 hrs by two-fold microdilution assay; type: functional
# Staphylococcus aureus [22] = experiment: Antibacterial activity against clinical isolate Staphylococcus aureus C1 assessed as inhibition of bacterial growth measured after 20 hrs by two-fold microdilution assay; type: functional
# Bacillus pumilus [23] = experiment: Antibacterial activity against penicillin-susceptible Bacillus pumilus CMCC63202 assessed as inhibition of bacterial growth measured after 20 hrs by two-fold microdilution assay; type: functional
# Streptococcus pyogenes [24] = experiment: Antibacterial activity against erythromycin-susceptible Streptococcus pyogenes assessed as inhibition of bacterial growth measured after 20 hrs by two-fold microdilution assay; type: functional
# Staphylococcus aureus [25] = experiment: Antibacterial activity against Staphylococcus aureus ATCC 25923 assessed as reduction of colony forming units at 32 ug/ml measured up to 24 hrs by Time kill assay; type: functional; parameters: scale not given: the % may be the effect or the level left; conditions: dose 32 µg/ml; time hrs <=24
# Enterococcus faecium [26] = experiment: Antibacterial activity against Vancomycin-resistant Enterococcus faecium ATCC 51559 assessed as inhibition of bacterial growth measured after 20 hrs by two-fold microdilution assay; type: functional
# [27] = Hemolytic activity against mouse RBC at 1 to 16 ug/ml measured after 1 hr by hemolysis assay relative to Triton X-100; type: ADME, cell-based, Erythrocyte; conditions: mouse red blood cells (erythrocytes), at 1 to 16 µg/mL, dose 1-16 µg/ml, read-out: Activity
# Staphylococcus aureus [28] = experiment: Antibacterial activity against Staphylococcus aureus ATCC 25923 assessed as fold change in MIC value measured after 14 passages by Multi passage resistance assay; type: functional, organism-based
# Staphylococcus aureus [29] = experiment: Bactericidal activity against penicillin-resistant Staphylococcus aureus ATCC 31007 assessed as inhibition of bacterial growth measured after 20 hrs by two-fold microdilution assay; type: functional
# Staphylococcus aureus [30] = experiment: Antibacterial activity against Staphylococcus aureus ATCC 25923 assessed as fold increase in MIC value measured after 15 passages by Multi passage resistance assay; type: functional
smiles,measurement,setting,value
CCCCn1ccc2ccc(-c3ccc4c(c3)c3c(C)cccc3c[n+]4C)cc21.[Cl-],MIC,Staphylococcus aureus [1],1 µg/mL
same,MIC,Pseudomonas aeruginosa [2],> 64 µg/mL
same,MBC,Staphylococcus aureus [3],64 µg/mL
same,Activity,Staphylococcus aureus [4],Active
same,Ratio,Staphylococcus aureus [5],16
same,MIC,Streptococcus pyogenes [6],16 µg/mL
same,fold change (FC),Staphylococcus aureus [7],4
same,MBC,Staphylococcus aureus [8],16 µg/mL
same,Ratio,Staphylococcus aureus [9],8
same,MIC,Enterococcus faecalis [10],16 µg/mL
same,MIC,Enterococcus faecium [11],8 µg/mL
same,Activity,Pseudomonas aeruginosa [12],inactive
same,MIC,Bacillus subtilis [13],4 µg/mL
same,MIC,Escherichia coli,> 64 µg/mL
same,MIC,Enterococcus faecalis [14],8 µg/mL
same,Ratio,Bacillus subtilis [15],2
same,Activity,Staphylococcus aureus [16],Dose-Dependent Effect
same,MIC,Staphylococcus aureus [17],8 µg/mL
same,MBC,Bacillus pumilus [18],> 64 µg/mL
same,MBC,Bacillus subtilis [19],8 µg/mL
same,MIC,Staphylococcus aureus [20],8 µg/mL
same,MIC,[21],16 µg/mL
same,MIC,Staphylococcus aureus [22],4 µg/mL
same,MIC,Bacillus pumilus [23],8 µg/mL
same,MIC,Streptococcus pyogenes [24],16 µg/mL
same,Activity,Staphylococcus aureus [25],>99.9%
same,MIC,Enterococcus faecium [26],8 µg/mL
same,hemolysis at 1 h,[27],< 8%
same,Activity,Staphylococcus aureus [28],Active
same,MBC,Staphylococcus aureus [29],> 64 µg/mL
CO[C@H]1/C=C/O[C@@]2(C)Oc3c(C)c(O)c4c(O)c(c(/C=N/N5CCN(C)CC5)c(O)c4c3C2=O)NC(=O)/C(C)=C\C=C\[C@H](C)[C@H](O)[C@@H](C)[C@@H](O)[C@@H](C)[C@H](OC(C)=O)[C@@H]1C [RIFAMPIN],fold change (FC),Staphylococcus aureus [7],8
same,fold change (FC),Staphylococcus aureus [30],>16000
